Assay results from US5306720A, “Piperidine derivative and pharmaceutical composition” (priority 1985, dated 1994).
Where a name gives a salt, the structure may show the parent alone. Read-outs that look alike come from different tables or passages of the source.

Tests used:
[1] = target: T1, acetylcholinesterase (Mus musculus, UniProt P21836); experiment: biochemical; type: biochemical; conditions: read-out: AChE inhibitory activity IC50
T1 construct: Using a mouse brain homogenate as a source of acetylcholinesterase; from tissue; host or cells: mouse brain homogenate
Procedure: Acetylcholinesterase Inhibitory Action using Mouse Brain Homogenate
Using a mouse brain homogenate as a source of acetylcholinesterase, the esterase activity was measured by a thiocholine method. Acetylcholine as a substrate, the compound of the invention as a substance to test and 5,5'-dithio-bis(2-nitrobenzoic acid), called also DTNB, were added to the mouse brain homogenate. After incubation, thiocholine produced was reacted with DTNB to form a yellow product.

[2] = test system: ddY male mouse; experiment: Acute Toxicity Test for ddY Male Mouse; type: in vivo; conditions: oral to mouse, ddY male mice; for number of deaths / number of animals used, 300 mg: 300 mg (mg/kg); for number of deaths / number of animals used, 100 mg: 100 mg (mg/kg)
Procedure: Acute Toxicity Test for ddY Male Mouse
Acute toxicity test was carried out using ddY male mice.

[3] = mouse brain homogenate, thiocholine method, absorbance at 412 nm

T1 sequence (P21836 32-614): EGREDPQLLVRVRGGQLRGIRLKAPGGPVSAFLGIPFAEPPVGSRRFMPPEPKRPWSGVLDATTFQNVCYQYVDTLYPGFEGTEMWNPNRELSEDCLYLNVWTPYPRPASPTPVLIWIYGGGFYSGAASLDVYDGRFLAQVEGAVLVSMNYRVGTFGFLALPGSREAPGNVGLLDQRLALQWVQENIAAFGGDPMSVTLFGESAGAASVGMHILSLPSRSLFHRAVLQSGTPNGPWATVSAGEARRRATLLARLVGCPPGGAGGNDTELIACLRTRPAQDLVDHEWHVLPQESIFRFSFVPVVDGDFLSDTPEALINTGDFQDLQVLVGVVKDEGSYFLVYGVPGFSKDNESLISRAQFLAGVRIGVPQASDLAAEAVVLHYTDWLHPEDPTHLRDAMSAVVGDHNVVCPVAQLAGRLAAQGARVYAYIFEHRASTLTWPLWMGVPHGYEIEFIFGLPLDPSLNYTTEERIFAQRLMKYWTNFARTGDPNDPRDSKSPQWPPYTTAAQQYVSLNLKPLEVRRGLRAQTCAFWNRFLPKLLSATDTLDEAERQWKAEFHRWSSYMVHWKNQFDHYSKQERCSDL

SMILES	IC50 [1, 3] [nM]	further results
CCN(CC)C(=O)c1ccc2c(c1)C(=O)N(CCC1CCN(Cc3ccccc3)CC1)C2=O [Example 52]	1.5	–
O=C(Nc1ccc2c(c1)C(=O)N(CCC1CCN(Cc3ccccc3)CC1)C2=O)c1ccccc1 [Example 111]	0.88	–
O=C1c2nccnc2C(=O)N1CCC1CCN(Cc2ccccc2)CC1 [Example 8, N-[2-(N'-benzylpiperidino-4)ethyl]-2,3-pyrazinedicarboxylic acid imide]	80	–
CN(CCC1CCN(Cc2ccccc2)CC1)C(=O)c1ccc(S(=O)(=O)C2CCCC2)cc1 [Example 6, N-methyl-N-[4'-(1'-benzylpiperidine)ethyl]-4-cyclopentylsulfonylbenzamide.hydrochloride]	21	–
O=C1c2cccc3cccc(c23)C(=O)N1CCC1CCN(Cc2ccccc2)CC1 [Example 9, N-[2-(N'-benzylpiperidino-4)ethyl]-1,8-naphthalimide]	5.5	–
O=C1c2cccnc2C(=O)N1CCC1CCN(Cc2ccccc2)CC1 [Example 58]	13	–
COc1ccc2c(c1)C(=O)N(CCC1CCN(Cc3ccccc3)CC1)C2=O [Example 54]	–	IC50 [1]: 8 nM
O=c1c2cc3c(=O)n(CCC4CCN(Cc5ccccc5)CC4)c(=O)c3cc2c(=O)n1CCC1CCN(Cc2ccccc2)CC1 [Example 112]	0.15	–
O=C(NCCC1CCN(Cc2ccccc2)CC1)c1ccc2c(c1)C(=O)c1ccccc1C2=O [Example 25]	4.5	–
CN(CCC1CCN(Cc2ccccc2)CC1)C(=O)c1ccc(-c2ccccc2)cc1 [Example 32]	4.3	–
O=C(NCCC1CCN(Cc2ccccc2)CC1)c1ccc(SCc2ccccc2)cc1 [Example 88]	49	–
O=C1c2ccc([N+](=O)[O-])cc2C(=O)N1CCC1CCN(Cc2ccccc2)CC1 [Example 7, N-[2-(N'-benzylpiperidino-4)ethyl]-4-nitrophthalimide.hydrochloride]	14	number of deaths / number of animals used, 300 mg [2]: 0/3
CN(CCC1CCN(Cc2ccc(O)cc2)CC1)C(=O)c1ccc(S(=O)(=O)Cc2ccccc2)cc1 [Example 41]	0.8	–
O=C1c2cccc([N+](=O)[O-])c2C(=O)N1CCC1CCN(Cc2ccccc2)CC1 [Example 47]	9	–
O=c1[nH]c2ccccc2c(=O)n1CCC1CCN(Cc2ccccc2)CC1 [Example 10, 3-[2-(1-benzyl-4-piperidino)ethyl]-2,4-(1H,3H)-quinazolidione.hydrochloride]	–	number of deaths / number of animals used, 100 mg [2]: 3/4
CN(CCC1CCN(Cc2ccccc2)CC1)C(=O)c1ccc(S(=O)(=O)Cc2ccccc2)cc1 [Example 4, N-methyl-N-[4'-(1'-benzylpiperidine)ethyl]-4-benzylsulfonylbenzamide, hydrochloride]	0.6	number of deaths / number of animals used, 100 mg [2]: 0/3; number of deaths / number of animals used, 300 mg [2]: 2/4
O=C(c1ccccc1)c1ccc2c(c1)C(=O)N(CCC1CCN(Cc3ccccc3)CC1)C2=O [Example 53]	2.4	–
O=C1c2ccc(Cl)cc2C(=O)N1CCC1CCN(Cc2ccccc2)CC1 [Example 133]	7.9	–
O=C1c2cc3ccccc3cc2C(=O)N1CCC1CCN(Cc2ccccc2)CC1 [Example 57]	1.2	–
CC(=O)Nc1ccc2c(c1)C(=O)N(CCC1CCN(Cc3ccccc3)CC1)C2=O [Example 50]	2.8	–
O=C(NCc1ccccc1)c1ccc2c(c1)C(=O)N(CCC1CCN(Cc3ccccc3)CC1)C2=O [Example 51]	2.2	–
O=C(NCCC1CCN(Cc2ccccc2)CC1)c1ccc(SCCl)cc1 [Example 115]	6.7	–
Cc1ccc2[nH]c(=O)n(CCC3CCN(Cc4ccccc4)CC3)c(=O)c2c1 [Example 113]	4.7	–
O=C(NCCC1CCN(Cc2ccccc2)CC1)c1ccc(C(=O)NCc2ccccc2)cc1 [Example 26]	9	–
O=C(NCCC1CCN(Cc2ccccc2)CC1)c1ccc([N+](=O)[O-])cc1 [Example 71]	55	–
COc1cc2c(cc1Cl)C(=O)N(CCC1CCN(Cc3ccccc3)CC1)C2=O [Example 56]	3.3	–
O=c1[nH]c2cc(Cl)ccc2c(=O)n1CCC1CCN(Cc2ccccc2)CC1 [Example 68]	4.5	–
CN(CCC1CCN(Cc2ccccc2)CC1)C(=O)c1ccncc1 [Example 5, N-methyl-N-[4'-(1'-benzylpiperidyl)ethyl] isonicotinic acid amide hydrochloride]	88	number of deaths / number of animals used, 100 mg [2]: 1/4; number of deaths / number of animals used, 300 mg [2]: 4/4
